Experimental data reported in patent publication US20240400564A1 (Syndax Pharmaceuticals, Inc, priority 2021, published 2024).

How the values were obtained:
[1] = target: T1, human Menin and N-terminal portion of human MLL (amino acids 4-43) (Homo sapiens, UniProt O00255); test: Menin-MLL competition assay (HTRF); format: binding; conditions: 1 hr incubation
T1 construct: H-FL-Menin diluted to 4 nM in assay buffer
T1 sequence (O00255 1-610): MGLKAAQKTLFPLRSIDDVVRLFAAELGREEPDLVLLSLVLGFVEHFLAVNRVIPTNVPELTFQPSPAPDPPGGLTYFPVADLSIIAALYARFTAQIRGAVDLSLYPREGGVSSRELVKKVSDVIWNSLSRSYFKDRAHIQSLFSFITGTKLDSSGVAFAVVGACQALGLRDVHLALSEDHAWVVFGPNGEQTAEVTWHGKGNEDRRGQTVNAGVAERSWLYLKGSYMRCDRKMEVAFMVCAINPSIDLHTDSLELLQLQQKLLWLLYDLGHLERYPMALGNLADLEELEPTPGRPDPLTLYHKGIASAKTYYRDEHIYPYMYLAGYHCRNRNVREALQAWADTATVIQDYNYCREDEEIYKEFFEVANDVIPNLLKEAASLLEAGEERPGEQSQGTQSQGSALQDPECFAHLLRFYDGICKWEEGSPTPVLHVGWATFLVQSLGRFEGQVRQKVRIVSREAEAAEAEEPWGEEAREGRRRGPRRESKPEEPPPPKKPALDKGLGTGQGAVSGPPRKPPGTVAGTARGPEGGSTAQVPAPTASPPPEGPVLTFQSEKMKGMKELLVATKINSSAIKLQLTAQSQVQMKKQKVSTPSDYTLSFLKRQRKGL
From the text: Menin-MLL is a competition assay between human Menin and N-terminal portion of human MLL representing amino acids 4-43 of the protein. The interaction between Menin and MLL peptide was monitored by HTRF employing Terbium labeled anti-His6 antibody directed to the N-terminal His6-tag on recombinant Menin and FITC group covalently attached to the MLL peptide. The N-terminal fragment of MLL, retained in all MLL fusion proteins, is involved in the interactions with Menin, and this protein-protein interaction is critical for the MLL fusion proteins mediated leukemogenic transformations.
For IC50 determination test compounds were prepared as 10 mM DMSO stock solutions. Considering DMSO as the vehicle in the assay system. Lower sub-stocks of 50 μM were prepared from the 10 mM stock solution. To test the compounds in assay, 3.16-fold serial dilutions are made in 100% DMSO. Mid-stock of 50×compounds (50 μM) were serially diluted (3.16 fold) in 100% DMSO in Polypropylene plate. In assay plate 1 micro-litre of the previously prepared compound dilution was stamped. H-FL-Menin diluted to 4 nM in assay buffer (50 mM Tris-HCl, pH 7.4, 50 mM NaCl, freshly prepared 1 mM DTT, 0.01% BSA, 0.005% Triton X-100) was pre-incubated with 8 nM anti-His6-Tb for 30 min at room temperature. FITC-MLL-4-43 was diluted to 2 nM in assay buffer and 25 μL was dispensed into each well of the assay plate followed by addition of 25 μl of pre-incubated H-FL-Menin and anti-His6-Tb mixture. Final concentration H-FL-Menin diluted to 1 nM in assay plate with 2 nM anti-His6-Tb and 1 nM FITC-MLL-4-43. After 1 hr incubation at room temperature, the HTRF signal was measured on the Spark multi-label plate reader. Resulting data were captured as a ratio of RFU520/RFU485×1000. The max values were obtained from 0% inhibition in presence of 2% DMSO and the min. values were 100% inhibition in presence of 1 μM reference compound.

[2] = target: hERG (Homo sapiens, UniProt Q12809); test: Patch clamp assay (hERG tail currents, whole-cell)
hERG, sequence (Q12809 whole entry): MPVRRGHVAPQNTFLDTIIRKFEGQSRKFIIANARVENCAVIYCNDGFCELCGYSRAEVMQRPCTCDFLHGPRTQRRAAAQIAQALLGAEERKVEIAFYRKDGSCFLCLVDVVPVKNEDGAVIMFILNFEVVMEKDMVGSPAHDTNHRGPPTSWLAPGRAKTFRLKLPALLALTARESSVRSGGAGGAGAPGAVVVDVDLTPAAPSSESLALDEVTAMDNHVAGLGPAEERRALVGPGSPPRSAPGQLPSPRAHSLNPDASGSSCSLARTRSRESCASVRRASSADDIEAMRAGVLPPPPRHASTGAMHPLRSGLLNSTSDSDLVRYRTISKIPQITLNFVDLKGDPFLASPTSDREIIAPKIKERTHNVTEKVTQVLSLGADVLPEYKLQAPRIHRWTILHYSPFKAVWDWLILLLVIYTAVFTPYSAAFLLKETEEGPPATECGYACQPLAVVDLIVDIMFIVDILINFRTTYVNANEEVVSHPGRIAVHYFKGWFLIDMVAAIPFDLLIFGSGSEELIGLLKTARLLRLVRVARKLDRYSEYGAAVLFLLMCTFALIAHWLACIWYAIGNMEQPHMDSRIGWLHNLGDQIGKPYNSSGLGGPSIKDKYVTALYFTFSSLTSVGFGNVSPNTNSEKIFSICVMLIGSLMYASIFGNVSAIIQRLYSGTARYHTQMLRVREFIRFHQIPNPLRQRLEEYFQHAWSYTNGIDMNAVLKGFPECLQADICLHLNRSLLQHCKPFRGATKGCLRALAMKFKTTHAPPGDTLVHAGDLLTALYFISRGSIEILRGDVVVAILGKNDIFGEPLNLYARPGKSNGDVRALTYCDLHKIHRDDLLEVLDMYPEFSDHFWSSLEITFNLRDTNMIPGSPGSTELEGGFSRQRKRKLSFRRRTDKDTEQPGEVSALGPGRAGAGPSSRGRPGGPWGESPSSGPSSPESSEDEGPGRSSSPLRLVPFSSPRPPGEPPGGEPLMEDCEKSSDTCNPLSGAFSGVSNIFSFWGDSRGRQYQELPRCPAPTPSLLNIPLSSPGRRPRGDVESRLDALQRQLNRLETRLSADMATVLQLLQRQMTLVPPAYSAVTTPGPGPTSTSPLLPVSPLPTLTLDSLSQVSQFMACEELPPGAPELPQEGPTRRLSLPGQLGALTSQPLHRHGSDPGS

SMILES | IC50 [1] [nM] | hERG % Remaining ([2]; 10 μM compound) | hERG % Remaining ([2]; 30 μM compound) | hERG % Remaining ([2]; 1 μM compound) | hERG % Remaining ([2]; 3 μM compound) | hERG % Remaining ([2]; 100 μM compound)
CCN(C(=O)c1cc(F)ccc1Oc1cncnc1N1CC2(CCN(C[C@@H]3CC[C@@H](NS(C)(=O)=O)CO3)CC2)C1)C(C)C [Example 1, N-Ethyl-5-fluoro-N-isopropyl-2-((4-(7-(((2S,5R)-5-(methylsulfonamido)tetrahydro-2H-pyran-2-yl)methyl)-2,7-diazaspiro[3.5]nonan-2-yl)pyrimidin-5-yl)oxy)benzamide] | < 100 | +++ (≥66%) | ++ (233% and ≤66%) |  |  | 
CCN(C(=O)c1cc(F)ccc1Oc1cncnc1N1CC2(CCN(C[C@@H]3CC[C@@H](NS(=O)(=O)CC)CO3)CC2)C1)C(C)C [Example 2, N-Ethyl-2-((4-(7-(((2S,5R)-5-(ethylsulfonamido)tetrahydro-2H-pyran-2-yl)methyl)-2,7-diazaspiro[3.5]nonan-2-yl)pyrimidin-5-yl)oxy)-5-fluoro-N-isopropylbenzamide] | < 100 | +++ (≥66%) | +++ (≥66%) |  |  | 
CCN(C(=O)c1cc(F)ccc1Oc1cncnc1N1CC2(CCN(C[C@@H]3CC[C@@H](NS(=O)(=O)C4CC4)CO3)CC2)C1)C(C)C [Example 4, 2-((4-(7-(((2S,5R)-5-(Cyclopropanesulfonamido)tetrahydro-2H-pyran-2-yl)methyl)-2,7-diazaspiro[3.5]nonan-2-yl)pyrimidin-5-yl)oxy)-N-ethyl-5-fluoro-N-isopropylbenzamide] | < 100 | +++ (≥66%) | +++ (≥66%) |  |  | 
CCN(C(=O)c1cc(F)ccc1Oc1cncnc1N1CC2(CCN(C[C@@H]3CC[C@@H](NS(=O)(=O)C4CCC4)CO3)CC2)C1)C(C)C [Example 6, 2-((4-(7-(((2S,5R)-5-(Cyclobutanesulfonamido)tetrahydro-2H-pyran-2-yl)methyl)-2,7-diazaspiro[3.5]nonan-2-yl)pyrimidin-5-yl)oxy)-N-ethyl-5-fluoro-N-isopropylbenzamide] | < 100 | +++ (≥66%) | ++ (233% and ≤66%) |  |  | 
CC(C)N(C(=O)c1cc(F)ccc1Oc1cncnc1N1CC2(CCN(C[C@@H]3CC[C@@H](NS(C)(=O)=O)CO3)CC2)C1)C(C)C [Example 12, 5-Fluoro-N,N-diisopropyl-2-((4-(7-(((2S,5R)-5-(methylsulfonamido)tetrahydro-2H-pyran-2-yl)methyl)-2,7-diazaspiro[3.5]nonan-2-yl)pyrimidin-5-yl)oxy)benzamide] | < 100 | +++ (≥66%) | +++ (≥66%) | +++ (≥66%) | +++ (≥66%) | ++ (233% and ≤66%)
CCS(=O)(=O)N[C@@H]1CC[C@@H](CN2CCC3(CC2)CN(c2ncncc2Oc2ccc(F)cc2C(=O)N(C(C)C)C(C)C)C3)OC1 [Example 13, 2-((4-(7-(((2S,5R)-5-(Ethylsulfonamido)tetrahydro-2H-pyran-2-yl)methyl)-2,7-diazaspiro[3.5]nonan-2-yl)pyrimidin-5-yl)oxy)-5-fluoro-N,N-diisopropylbenzamide] | < 100 | +++ (≥66%) | ++ (233% and ≤66%) | +++ (≥66%) | +++ (≥66%) | ++ (233% and ≤66%)
CC(C)N(C(=O)c1cc(F)ccc1Oc1cncnc1N1CC2(CCN(C[C@@H]3CC[C@@H](NS(=O)(=O)C(C)C)CO3)CC2)C1)C(C)C [Example 14, 5-Fluoro-N,N-diisopropyl-2-((4-(7-(((2S,5R)-5-((1-methylethyl)sulfonamido)tetrahydro-2H-pyran-2-yl)methyl)-2,7-diazaspiro[3.5]nonan-2-yl)pyrimidin-5-yl)oxy)benzamide] | < 100 | +++ (≥66%) | ++ (233% and ≤66%) |  | +++ (≥66%) | + (<33%)
CC(C)N(C(=O)c1cc(F)ccc1Oc1cncnc1N1CC2(CCN(C[C@@H]3CC[C@@H](NS(=O)(=O)C4CC4)CO3)CC2)C1)C(C)C [Example 15, 2-((4-(7-(((2S,5R)-5-(Cyclopropanesulfonamido)tetrahydro-2H-pyran-2-yl)methyl)-2,7-diazaspiro[3.5]nonan-2-yl)pyrimidin-5-yl)oxy)-5-fluoro-N,N-diisopropylbenzamide] | < 100 | +++ (≥66%) | ++ (233% and ≤66%) |  | +++ (≥66%) | + (<33%)
CC(C)N(C(=O)c1cc(F)ccc1Oc1cncnc1N1CC2(CCN(C[C@@H]3CC[C@@H](NS(=O)(=O)C4COC4)CO3)CC2)C1)C(C)C [Example 16, 5-Fluoro-N,N-diisopropyl-2-((4-(7-(((2S,5R)-5-(oxetane-3-sulfonamido)tetrahydro-2H-pyran-2-yl)methyl)-2,7-diazaspiro[3.5]nonan-2-yl)pyrimidin-5-yl)oxy)benzamide] | < 100 | +++ (≥66%) | +++ (≥66%) |  |  | 
CCS(=O)(=O)N[C@@H]1CC[C@@H](CN2CCC3(CC2)CN(c2ncncc2Oc2ccc(F)cc2C(=O)N(C(C)C)C2CC2)C3)OC1 [Example 19, N-Cyclopropyl-2-((4-(7-(((2S,5R)-5-(ethylsulfonamido)tetrahydro-2H-pyran-2-yl)methyl)-2,7-diazaspiro[3.5]nonan-2-yl)pyrimidin-5-yl)oxy)-5-fluoro-N-isopropylbenzamide] | < 100 | +++ (≥66%) | ++ (233% and ≤66%) |  |  | 
CCS(=O)(=O)N[C@@H]1CC[C@@H](CN2CCC3(CC2)CN(c2ncncc2Oc2ccc(F)cc2C(=O)N(C(C)C)[C@@H]2CCOC2)C3)OC1 [Example 46, 2-((4-(7-(((2S,5R)-5-(Ethylsulfonamido)tetrahydro-2H-pyran-2-yl)methyl)-2,7-diazaspiro[3.5]nonan-2-yl)pyrimidin-5-yl)oxy)-5-fluoro-N-isopropyl-N-((R)-tetrahydrofuran-3-yl)benzamide] | < 100 |  |  |  |  | 
CCS(=O)(=O)N[C@@H]1CC[C@@H](CN2CCC3(CC2)CN(c2ncncc2Oc2ccc(F)cc2C(=O)N(C(C)C)C2COC2)C3)OC1 [Example 48, 2-((4-(7-(((2S,5R)-5-(Ethylsulfonamido)tetrahydro-2H-pyran-2-yl)methyl)-2,7-diazaspiro[3.5]nonan-2-yl)pyrimidin-5-yl)oxy)-5-fluoro-N-isopropyl-N-(oxetan-3-yl)benzamide] | < 100 |  |  |  |  | 
COCCN(C(=O)c1cc(F)ccc1Oc1cncnc1N1CC2(CCN(C[C@@H]3CC[C@@H](NS(=O)(=O)C4CC4)CO3)CC2)C1)C(C)C [Example 51, 2-((4-(7-(((2S,5R)-5-(Cyclopropanesulfonamido)tetrahydro-2H-pyran-2-yl)methyl)-2,7-diazaspiro[3.5]nonan-2-yl)pyrimidin-5-yl)oxy)-5-fluoro-N-isopropyl-N-(2-methoxyethyl)benzamide] | < 100 |  |  |  |  | 
